Consider eight compounds from publication PMC12701685, “Support Vector Machine Identification of Small Molecule Binders to an Understudied Allosteric Site of SARS‐CoV‐2 Mpro for Next‐Generation PROTAC‐Based Therapeutics” (Archiv Der Pharmazie, 2025).

Where two headings read alike, the source gives them in different places.

One assay relates to infected cells. As to conditions: cited from earlier work.
Assay [1] deals with T1, SARS‐CoV‐2 Mpro (Severe acute respiratory syndrome coronavirus 2, UniProt P0DTD1). As to conditions: non‐covalent inhibitors; cited from earlier work.
Assay [2] relates to SARS‐CoV‐2 replication in Vero E6 cells. The settings on record: cited from earlier work.
Assay [3] addresses T1, SARS‐CoV‐2 Mpro. The assay is described as follows: FRET peptide substrate enzymatic assay. Format: biochemical. The settings on record: compound 20 µM; for remaining activity at 20 µM: enzyme 75 nM, substrate 25 µM, read-out: Residual activity (%). Here is the method: The three compounds identified as binders in the MST assay were tested for their inhibitory properties against SARS‐CoV‐2 Mpro at a 20 µM concentration (see Section 4 for details).
Inhibitory activities of the compounds against SARS‐CoV‐2 Mpro were determined as described previously by cleavage of a fluorescence resonance energy transfer (FRET) peptide substrate (Dabcyl‐[…]‐Edans), purchased from Genescript (New Jersey, USA).
Fluorescence measurements were carried out in white flat‐bottom 96‐well plates (Greiner Bio‐One, Kremsmünster, Upper Austria) using a Tecan Spark 10M plate reader (Tecan Group Ltd., Männedorf, Switzerland). Each well contained a final volume of 200 µL, consisting of 180 µL assay buffer (20 mM TRIS‐HCl pH 7.5, 20 mM NaCl, 0.1 mM EDTA, 1 mM DTT), 5 µL enzyme solution (final concentration 75 nM), 10 µL inhibitor in DMSO (final concentration 20 µM) or pure DMSO as a negative control, and 5 µL substrate solution in DMSO (final concentration 25 µM). The reaction was monitored for 10 min at 25°C, with fluorescence readings taken at 30‐s intervals. The substrate was excited at 335 nm, and fluorescence emission was recorded at 493 nm. The remaining enzymatic activity was determined by comparing the substrate hydrolysis rate in reaction mixtures containing the inhibitors to that of the DMSO control. Only the first 5 min of the fluorescence curves (Supporting Information S1: Figure S3) were used for the calculation to obtain the linear part.

The target in assay [4] is T1, SARS‐CoV‐2 Mpro. The assay is described as follows: Microscale thermophoresis (MST) binding check and binding affinity. The settings on record: for RA (Response Amplitude): MST binding affinity experiment, RA ≥ 1.5 indicative of binding; for Kd: MST, labeled Mpro 35 nM, 16 1:1 serial dilutions, two independent experiments, read-out: K d ± K d confidence. For orientation: In MST a laser heats a spot of the sample, and binding alters the fluorescence response.

Assay [5] has as its system virus‐infected VeroE6 cells. The settings on record: plaque reduction; cited from earlier work.
For assay [6], the system named is virus‐infected VeroE6 cells. The settings on record: cytopathic effect (CPE) inhibition; cited from earlier work. On the technique in general: Protection from cytopathic effect is a common read-out in antiviral testing.
The subject of a further assay is SARS-CoV-1. As to conditions: cited from earlier work.

On to `O=C(NCc1cccs1)[C@@H]1CN(C(=O)c2cccnc2)CCN1c1ccc(Cl)c(Cl)c1` [compound 51], for which, in the assay on infected cells, the EC50 was roughly 1.1 µM. The IC50 on SARS‐CoV‐2 Mpro [1] is roughly 0.4 µM.
`O=C(NC1CCNCC1)c1n[nH]cc1NC(=O)c1c(Cl)cccc1Cl` [AT7519, N‐(4‐piperidinyl)‐4‐(2,6‐dichlorobenzoylamino)‐1H‐ Pyrazole‐3‐Carboxamide]: the EC50 in assay [2] was 25.2 µM.
As to `CCOc1cccc(-c2nn3c(-c4cccnc4)nnc3s2)c1` [compound 8], on SARS‐CoV‐2 Mpro [3], the “Effect on enzyme activity (in words)” value is listed as “no effect on the catalytic activity” and the remaining activity at 20 µM amounted to 101%. At SARS‐CoV‐2 Mpro [4], the “RA (Response Amplitude)” value was 4.7 and the Kd is 23.9 ± 7.4 µM.
For the compound `O=C(c1c[nH]c(=O)[nH]c1=O)N1CCN(c2ccc(Cl)c(Cl)c2)CC1` [compound 23], on SARS‐CoV‐2 Mpro [1], the IC50 is 5.1 ± 0.63 µM.
On to `O=C(Cn1nnc2ccccc21)N(Cc1cccc(Cl)c1)c1ccc(-c2c[nH]cn2)cc1` [compound 47], for which the EC50 in assay [5] was 0.56 µM; in assay [6], 0.5 µM.
`CCC(C)(C)NC(=O)[C@@H](c1ccn(C)c1)N(C(=O)Cn1nnc2ccccc21)c1ccc(NC(C)=O)cc1` [compound 42]: in the assay with SARS-CoV-1, the IC50 was 6.2 µM.
For the compound `Cc1ccc(C(=O)NCCCNC(=O)c2ccccn2)cc1C` [compound 7], at SARS‐CoV‐2 Mpro [3], the “Effect on enzyme activity (in words)” value is on record as “no effect on the catalytic activity” and the remaining activity at 20 µM was 105%. At SARS‐CoV‐2 Mpro [4], the “RA (Response Amplitude)” value was 3.4 and the Kd was determined as 2.8 ± 0.9 µM.
The corresponding values for `Cc1cc2ncn(S(=O)(=O)c3ccc(S(N)(=O)=O)cc3)c2cc1C` [compound 9] are “no effect on the catalytic activity”, 106%, 2.7 and 39 ± 23.4 µM.

One may read the EC50 as the concentration at which the effect is half-maximal. For orientation: IC50 means the concentration at which inhibition is half-maximal.
